In PubChem BioAssay AID2305 (GlaxoSmithKline (GSK), 2010):

Each compound was assayed on P. falciparum 3D7 growth, pLDH absorbance (assay: P. falciparum 3D7 growth inhibition, dose response, strain 3D7 (AID 2305)).
With `O=C(Nc1ccc2c(c1)CCN(C1CCC1)CC2)c1cn(-c2ccccc2)nc1-c1ccccc1` the IC50 was 810 nM.
In the case of `Cc1cccc2[nH]c(-c3ccc(-c4cccc(NC(=O)NCc5ccccc5)c4)cc3)nc12`, the IC50 is reported as 780 nM.
Compound `COc1ccc(-c2nc(NCc3ccccc3)c3cc(OC)c(OC)cc3n2)cc1` has an IC50 of 400 nM.
`N#Cc1cccc(NC(=O)Nc2cccc(-c3cccc(-c4nc5ccc(F)cc5[nH]4)c3)c2)c1` was tested, and the IC50 was 230 nM.
With `CCCN(Cc1nnc(-c2ccco2)o1)C(=O)C1CCN(c2ncc(C(F)(F)F)cc2Cl)CC1` the IC50 was 690 nM.
For `CCNc1cc(C)nc(Nc2ccc(C)cc2)n1`, the IC50 was 730 nM.
Compound `Cc1onc(-c2c(Cl)cccc2Cl)c1C(=O)NC1=NC(C)(C)ON1c1ccccc1` has an IC50 of 1070 nM.
`CCOc1ccc(C2CCN(CCCCNC(=O)c3ccc(NC(=O)c4ccc(Cl)cc4)cc3)CC2)c(CC)c1` gave an IC50 of 790 nM.
With `CCOC(=O)C(C)(C)Oc1ccc(C(=C2CC(C)(C)CC(C)(C)C2)c2ccc(O)cc2)cc1` the IC50 was 1130 nM.
`CCc1c(CCNCC/C=C/CCNCCc2ccc(OC)c(OC)c2CC)ccc(OC)c1OC` gave an IC50 of 770 nM.
In the case of `COc1cc(F)c2ncc(Cl)c(CCN3CCC(NCc4ccc5c(c4)NC(=O)CS5)CC3)c2c1`, the IC50 is reported as 310 nM.
`CC[C@H]1C[N+]2([O-])CC[C@@H]1C[C@H]2[C@H](O)c1cc(-c2ccccc2)nc2ccc(OC)cc12` showed an IC50 of 840 nM.
For `O=C(NCCN1CCC(NC(=O)c2ccc(-c3ccccn3)s2)CC1)c1ccc(Cl)c(Cl)c1`, the IC50 was 880 nM.
For `COc1cccc2c(Nc3ccccc3C)nc(Nc3ccccc3C)nc12`, the IC50 was 680 nM.
For `Cc1noc(-c2cccs2)c1C(=O)NC(C)c1cccc2ccccc12` (centres undefined), the IC50 was 130 nM.
`COc1cc(C(=O)NC2CCN(Cc3ccccc3)CC2)ccc1-c1nc2cc(Cl)c(C)cc2[nH]1` showed an IC50 of 300 nM.
In the case of `FC(F)(F)c1cccc(CNCC2CCN(Cc3ccc4c(c3)OCO4)CC2)c1`, the IC50 is reported as 730 nM.
Compound `O=C(/C=C/c1ccc(Cl)cc1)NCCCCCN1CCCC(C(=O)Nc2cccc(Cl)c2)C1` (centres undefined) has an IC50 of 210 nM.
Work on `Cc1[nH]c(C)c(-c2ccc(OCc3cc(F)cc(F)c3)nc2)c(=O)c1Br` yielded an IC50 of 100 nM.
With `CCc1c(C)c2ccc3c(c2oc1=O)CN(CCc1ccc(F)cc1)CO3` the IC50 was 1230 nM.
In the case of `CCCN(CC(=O)NCCc1ccccc1)c1ccc(C#N)c2ccccc12`, the IC50 is reported as 500 nM.
With `O=C(/C=C/c1ccc(Cl)c(Cl)c1)NCCCCCCN1CCCN(C(=O)Nc2cc(F)cc(F)c2)CC1` the IC50 was 710 nM.
Compound `CC(CNc1nc(NCC(c2ccccc2)c2ccccc2)c2[nH]cnc2n1)c1ccccc1` (centres undefined) has an IC50 of 950 nM.
Compound `COc1ccc2nccc([C@@H](O)CN3CCC(NC(=O)c4[nH]c5ccccc5c4-c4ccccc4)CC3)c2c1` has an IC50 of 900 nM.
`CN(CCNCc1ccc(-c2cccc(-c3nc4ccccc4[nH]3)c2)cc1)S(C)(=O)=O` showed an IC50 of 950 nM.
`CC(CN1CCN(C)CC1)C(=O)Nc1ccc(-c2cccc(-c3nc4ccc(C(F)(F)F)cc4[nH]3)c2)cc1` (centres undefined) was tested, and the IC50 was 400 nM.
`COc1ccc2nccc(NN=Cc3ccc(Cl)cc3)c2c1` showed an IC50 of 210 nM.
`COc1ccc2nccc([C@@H](O)CN3CCC(NCc4ccc(OC)c(NC(C)=O)c4)CC3)c2c1` showed an IC50 of 840 nM.
`O=C1CCCN1CCCNCc1cccc(-c2cccc(-c3nc4ccc(C(F)(F)F)cc4[nH]3)c2)c1` showed an IC50 of 300 nM.
`CC(C)c1cc2c(cc1O)C(Cc1ccccc1Cl)N(C)CC2` (centres undefined) gave an IC50 of 730 nM.
`NC1CCN(c2nc(NCCCc3ccc(O)cc3)nc(NCc3ccccc3-c3ccc(C(F)(F)F)cc3)n2)CC1` gave an IC50 of 730 nM.
Compound `CCCCOc1cc2c(cc1OCC)C(C=Cc1ccc(Cl)cc1Cl)=NCC2` has an IC50 of 400 nM.
With `COc1ccc(NC(=O)CCNc2cc(C)nc(NCCc3ccccc3)n2)cc1` the IC50 was 1160 nM.
With `NS(=O)(=O)c1ccc(CNc2ccc3ncc(-c4ccc(OC(F)(F)F)cc4)n3n2)cc1` the IC50 was 580 nM.
In the case of `CCC[C@@H]([C@@H](CC1CCC(C)CC1)C(=O)N[C@@H](CCCNc1ncccn1)C(=O)Nc1nccs1)N(O)C=O` (some centres undefined), the IC50 is reported as 190 nM.
With `COC(=O)CCCCCOc1cc(Cc2cnc(N)nc2N)cc(OC)c1OC` the IC50 was 180 nM.
With `CNCCNc1nccc(N2CCc3ncnc(Nc4ccc(OCc5cccc(F)c5)c(Cl)c4)c3C2)n1` the IC50 was 200 nM.
In the case of `Cc1noc(C)c1-c1cccc(CNCc2ccc(-c3ccc(-c4nc5ccc(C(F)(F)F)cc5[nH]4)cc3)cc2)c1`, the IC50 is reported as 170 nM.
`COc1cc(Cc2cnc(N)nc2N)cc(OCCCCC2SC(=O)NC2=O)c1Br` (centres undefined) was tested, and the IC50 was 120 nM.
`COc1ccc2c(c1)[nH]c1c(C=Cc3ccccc3)nccc12` was tested, and the IC50 was 380 nM.
Compound `c1ccc(Oc2ccc(Nc3ccnc4cc(-c5ccc(CN6CCCCC6)o5)ccc34)cc2)nc1` has an IC50 of 330 nM.
`Clc1ccc(CNc2ccnc(NCc3ccc4c(c3)OCCCO4)n2)c(Cl)c1` gave an IC50 of 990 nM.
Compound `CCc1cc2c(cc1CC)CC(NC[C@@H](O)c1ccc(O)c3[nH]c(=O)ccc13)C2` has an IC50 of 1120 nM.
With `CCOc1ccc2c(c1)C(C)(c1ccc3c(c1)C(C)CC(C)(C)N3)CC(C)(C)N2` (centres undefined) the IC50 was 800 nM.
For `COc1cccc(-c2cc3nc4c(c(NCCCn5ccnc5)n3n2)CCCC4)c1`, the IC50 was 680 nM.
For `O=C(Nc1ccc(F)cc1)N1CCCN(c2ccnc3cc(Cl)ccc23)CC1`, the IC50 was 790 nM.
`CCC(C)(C)NC(=O)C(c1cccc(OC)c1)N(C(=O)CNC(=O)c1cccs1)c1ccc2c(c1)OCCO2` (centres undefined) showed an IC50 of 830 nM.
`O=C(NC1CCN(c2ncc(C(F)(F)F)cc2Cl)CC1)c1cccs1` showed an IC50 of 900 nM.
`CS(=O)(=O)c1ccc(CNCc2ccc(-c3ccc(-c4nc5ccc(F)cc5[nH]4)s3)cc2)cc1` was tested, and the IC50 was 270 nM.
`O=C(/C=C/c1ccc(Cl)c(Cl)c1)NCCCCCN1CCCN(C(=S)Nc2ccc(Cl)cc2)CC1` was tested, and the IC50 was 1130 nM.
`CC(C)CCC[C@@H]([C@@H](CC1CCCCC1)C(=O)N[C@@H](CCCCNC(=O)OCc1ccccc1)C(=O)Nc1nccs1)N(O)C=O` showed an IC50 of 460 nM.
Work on `Nc1c2nc(-c3c(F)cccc3Cl)[nH]c(=O)c2nc(=O)n1-c1ccccc1` yielded an IC50 of 680 nM.
`CO/C(=C\C=C\c1cc2cc(Cl)c(Cl)cc2[nH]1)C(=O)NCCCN1CCN(c2ccc(OC)cc2)CC1` was tested, and the IC50 was 700 nM.
`CCNc1cc(CC)nc(Nc2ccc(C)cc2)n1` gave an IC50 of 850 nM.
Compound `Cc1cc(NN=Cc2ccccc2Cl)c2cccc(C)c2n1` has an IC50 of 710 nM.
For `N#Cc1ccc(NC(=NCCc2c[nH]c3ccccc23)Nc2ccc(-c3ccccc3)cc2)c(O)c1`, the IC50 was 340 nM.
For `COc1cccc2sc(N3CCN(C(=O)c4ccc([N+](=O)[O-])o4)CC3)nc12`, the IC50 was 870 nM.
For `NC(N)=Nc1nc(-c2cc(NC(=O)C(F)(F)F)cc([N+](=O)[O-])c2)cs1`, the IC50 was 780 nM.
`CCCCCC(C)C(C)c1cc(O)c2c(c1)OC(C)(C)CC2(O)c1ccnn1C` (centres undefined) gave an IC50 of 960 nM.
Compound `O=C(NC1CCC(CN2CCC(c3c[nH]c4ccccc34)CC2)CC1)c1cc2ccccc2o1` (centres undefined) has an IC50 of 970 nM.
`CC(CN1CCN(C)CC1)C(=O)Nc1cccc(-c2cccc(-c3nc4ccc(F)cc4[nH]3)c2)c1` (centres undefined) showed an IC50 of 270 nM.
`CS(=O)(=O)Nc1cccc(-c2cnc3[nH]cc(-c4ccc(CN)cc4)c3c2)c1` was tested, and the IC50 was 990 nM.
With `CCNc1cc(C(=O)N[C@@H](Cc2ccccc2)[C@H](O)CN[C@@H]2CCc3ccccc32)cc(N2CCCCS2(=O)=O)c1` the IC50 was 550 nM.
Compound `COc1ccc(S(=O)(=O)NC2CCN(CCCOc3ccnc4cc(Cl)ccc34)C2)cc1OC` (centres undefined) has an IC50 of 1050 nM.
For `O=C(NCCN1CCCC1)c1cc(-c2ccc(Cl)c(O)c2)c(-c2ccncc2)o1`, the IC50 was 1630 nM.
`COc1cc2nc(NCc3cccc(CNC(=O)c4ccc(-c5ccc(C(C)=O)cc5)cc4)c3)nc(N)c2cc1OC` showed an IC50 of 120 nM.
`NCc1ccc(CNCc2cccc(-c3cccc(-c4nc5ccc(F)cc5[nH]4)c3)c2)cc1` was tested, and the IC50 was 310 nM.
For `CN(C)c1ccc(NC2=NC(C)(C)N=C(N)N2)cc1`, the IC50 was 220 nM.
In the case of `NC1=NC(CCc2ccccc2)N(c2ccc(Cl)cc2)C(N)=N1` (centres undefined), the IC50 is reported as 40 nM.
